According to ChEMBL document CHEMBL4507285, “Data for DCP probe MRL-SYKi” (2021):

What was measured:
[1] = target: BMP-2-inducible protein kinase (Homo sapiens) (UniProt Q9NSY1); details: Compound concentration 100.0 nM
[2] = target: Platelet-derived growth factor receptor alpha (Homo sapiens) (UniProt P16234); details: Compound concentration 100.0 nM
[3] = target: Mitogen-activated protein kinase kinase kinase kinase 5 (Homo sapiens) (UniProt Q9Y4K4); details: Compound concentration 100.0 nM
[4] = test system: Tyrosine-protein kinase ABL1 (Homo sapiens), P00519 [F317I]; details: Compound concentration 100.0 nM
[5] = target: Tyrosine-protein kinase ZAP-70 (Homo sapiens) (UniProt P43403); details: Compound concentration 100.0 nM
[6] = target: Ribosomal protein S6 kinase alpha-4 (Homo sapiens) (UniProt O75676); details: Compound concentration 100.0 nM
[7] = test system: Phosphatidylinositol 4,5-bisphosphate 3-kinase catalytic subunit alpha isoform (Homo sapiens), P42336 [C420R]; details: Compound concentration 100.0 nM
[8] = target: G protein-coupled receptor kinase 4 (Homo sapiens) (UniProt P32298); details: Compound concentration 100.0 nM
[9] = target: Leukocyte tyrosine kinase receptor (Homo sapiens) (UniProt P29376); details: Compound concentration 100.0 nM
[10] = test system: Epidermal growth factor receptor (Homo sapiens), P00533 [UNDEFINED MUTATION]; details: Compound concentration 100.0 nM
[11] = test system: Mast/stem cell growth factor receptor Kit (Homo sapiens), P10721 [L576P]; details: Compound concentration 100.0 nM
[12] = target: Vascular endothelial growth factor receptor 3 (Homo sapiens) (UniProt P35916); details: Compound concentration 100.0 nM
[13] = target: Leucine-rich repeat serine/threonine-protein kinase 2 (Homo sapiens) (UniProt Q5S007); details: Compound concentration 100.0 nM
[14] = target: Serine/threonine-protein kinase 33 (Homo sapiens) (UniProt Q9BYT3); details: Compound concentration 100.0 nM
[15] = target: Myosin-IIIa (Homo sapiens) (UniProt Q8NEV4); details: Compound concentration 100.0 nM
[16] = target: Dual specificity protein kinase CLK4 (Homo sapiens) (UniProt Q9HAZ1); details: Compound concentration 100.0 nM
[17] = target: Phosphatidylinositol 4-phosphate 5-kinase type-1 alpha (Homo sapiens) (UniProt Q99755); details: Compound concentration 100.0 nM
[18] = test system: Epidermal growth factor receptor (Homo sapiens), P00533 [L861Q]; details: Compound concentration 100.0 nM
[19] = target: Ribosomal protein S6 kinase alpha-3 (Homo sapiens) (UniProt P51812); details: Compound concentration 100.0 nM
[20] = target: Cyclin-dependent kinase 2 (Homo sapiens) (UniProt P24941); details: Compound concentration 100.0 nM
[21] = target: Serine/threonine-protein kinase PAK 2 (Homo sapiens) (UniProt Q13177); details: Compound concentration 100.0 nM
[22] = target: Serine/threonine-protein kinase MAK (Homo sapiens) (UniProt P20794); details: Compound concentration 100.0 nM
[23] = test system: Epidermal growth factor receptor (Homo sapiens), P00533 [G719S]; details: Compound concentration 100.0 nM
[24] = target: Histamine H2 receptor (Homo sapiens) (UniProt P25021); details: Compound concentration 10.0 uM
[25] = target: Serine/threonine-protein kinase tousled-like 2 (Homo sapiens) (UniProt Q86UE8); details: Compound concentration 100.0 nM
[26] = test system: Tyrosine-protein kinase ABL1 (Homo sapiens), P00519 [F317I]; details: Compound concentration 100.0 nM; remark: listed apart in the source
[27] = target: Mitogen-activated protein kinase kinase kinase 4 (Homo sapiens) (UniProt Q9Y6R4); details: Compound concentration 100.0 nM
[28] = target: Mitogen-activated protein kinase 3 (Homo sapiens) (UniProt P27361); details: Compound concentration 100.0 nM
[29] = test system: Receptor-type tyrosine-protein kinase FLT3 (Homo sapiens), P36888 [UNDEFINED MUTATION]; details: Compound concentration 100.0 nM
[30] = target: Glycogen synthase kinase-3 beta (Homo sapiens) (UniProt P49841); details: Compound concentration 100.0 nM
[31] = target: Mitogen-activated protein kinase kinase kinase 3 (Homo sapiens) (UniProt Q99759); details: Compound concentration 100.0 nM
[32] = target: Dual serine/threonine and tyrosine protein kinase (Homo sapiens) (UniProt Q6XUX3); details: Compound concentration 100.0 nM
[33] = target: Ribosomal protein S6 kinase alpha-2 (Homo sapiens) (UniProt Q15349); details: Compound concentration 100.0 nM
[34] = target: Tyrosine-protein kinase JAK3 (Homo sapiens) (UniProt P52333); details: Compound concentration 100.0 nM
[35] = target: Serine/threonine-protein kinase Nek9 (Homo sapiens) (UniProt Q8TD19); details: Compound concentration 100.0 nM
[36] = test system: Serine/threonine-protein kinase B-raf (Homo sapiens), P15056 [V600E]; details: Compound concentration 100.0 nM
[37] = target: Protein-tyrosine kinase 2-beta (Homo sapiens) (UniProt Q14289); details: Compound concentration 100.0 nM
[38] = target: Sigma intracellular receptor 2 (Homo sapiens) (UniProt Q5BJF2); details: Compound concentration 10.0 uM
[39] = target: Serine/threonine-protein kinase Sgk1 (Homo sapiens) (UniProt O00141); details: Compound concentration 100.0 nM
[40] = target: Maternal embryonic leucine zipper kinase (Homo sapiens) (UniProt Q14680); details: Compound concentration 100.0 nM
[41] = target: Tyrosine-protein kinase Yes (Homo sapiens) (UniProt P07947); details: Compound concentration 100.0 nM
[42] = target: Serine/threonine-protein kinase MRCK alpha (Homo sapiens) (UniProt Q5VT25); details: Compound concentration 100.0 nM
[43] = target: Myosin-IIIb (Homo sapiens) (UniProt Q8WXR4); details: Compound concentration 100.0 nM
[44] = target: 5-hydroxytryptamine receptor 1B (Homo sapiens) (UniProt P28222); details: Compound concentration 10.0 uM
[45] = target: Eukaryotic translation initiation factor 2-alpha kinase 1 (Homo sapiens) (UniProt Q9BQI3); details: Compound concentration 100.0 nM

Tyrosine-protein kinase ABL1 (Homo sapiens), P00519 [F317I], sequence (P00519 whole entry F317I): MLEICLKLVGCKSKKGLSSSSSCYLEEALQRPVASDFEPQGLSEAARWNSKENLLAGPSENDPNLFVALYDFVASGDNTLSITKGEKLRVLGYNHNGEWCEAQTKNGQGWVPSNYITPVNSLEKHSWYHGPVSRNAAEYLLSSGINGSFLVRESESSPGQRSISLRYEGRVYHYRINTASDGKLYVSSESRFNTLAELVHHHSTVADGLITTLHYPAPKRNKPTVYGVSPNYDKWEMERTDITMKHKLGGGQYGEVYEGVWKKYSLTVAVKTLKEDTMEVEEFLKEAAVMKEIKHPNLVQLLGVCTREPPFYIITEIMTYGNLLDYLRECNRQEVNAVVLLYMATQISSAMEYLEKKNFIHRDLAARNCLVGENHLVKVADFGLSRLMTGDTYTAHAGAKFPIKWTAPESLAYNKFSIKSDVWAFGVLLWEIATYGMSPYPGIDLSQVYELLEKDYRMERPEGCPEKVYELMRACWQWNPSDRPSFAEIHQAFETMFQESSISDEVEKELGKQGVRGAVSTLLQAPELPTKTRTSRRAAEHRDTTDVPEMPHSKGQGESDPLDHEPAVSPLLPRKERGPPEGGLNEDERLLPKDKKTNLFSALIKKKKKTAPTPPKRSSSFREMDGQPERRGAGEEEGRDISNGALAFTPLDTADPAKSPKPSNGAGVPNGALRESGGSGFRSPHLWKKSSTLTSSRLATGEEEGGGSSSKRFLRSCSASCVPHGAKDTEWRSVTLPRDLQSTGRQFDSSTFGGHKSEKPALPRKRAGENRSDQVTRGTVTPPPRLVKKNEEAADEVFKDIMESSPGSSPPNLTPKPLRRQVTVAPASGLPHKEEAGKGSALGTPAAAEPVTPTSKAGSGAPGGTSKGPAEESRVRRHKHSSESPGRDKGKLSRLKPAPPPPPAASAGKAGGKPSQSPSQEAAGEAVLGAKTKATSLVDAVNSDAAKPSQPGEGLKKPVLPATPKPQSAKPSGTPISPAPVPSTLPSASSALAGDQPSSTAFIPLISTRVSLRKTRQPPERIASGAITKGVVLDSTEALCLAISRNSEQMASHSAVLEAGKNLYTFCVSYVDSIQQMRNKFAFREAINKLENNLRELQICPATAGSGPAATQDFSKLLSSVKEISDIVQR
Phosphatidylinositol 4-phosphate 5-kinase type-1 alpha (Homo sapiens), sequence (Q99755 whole entry): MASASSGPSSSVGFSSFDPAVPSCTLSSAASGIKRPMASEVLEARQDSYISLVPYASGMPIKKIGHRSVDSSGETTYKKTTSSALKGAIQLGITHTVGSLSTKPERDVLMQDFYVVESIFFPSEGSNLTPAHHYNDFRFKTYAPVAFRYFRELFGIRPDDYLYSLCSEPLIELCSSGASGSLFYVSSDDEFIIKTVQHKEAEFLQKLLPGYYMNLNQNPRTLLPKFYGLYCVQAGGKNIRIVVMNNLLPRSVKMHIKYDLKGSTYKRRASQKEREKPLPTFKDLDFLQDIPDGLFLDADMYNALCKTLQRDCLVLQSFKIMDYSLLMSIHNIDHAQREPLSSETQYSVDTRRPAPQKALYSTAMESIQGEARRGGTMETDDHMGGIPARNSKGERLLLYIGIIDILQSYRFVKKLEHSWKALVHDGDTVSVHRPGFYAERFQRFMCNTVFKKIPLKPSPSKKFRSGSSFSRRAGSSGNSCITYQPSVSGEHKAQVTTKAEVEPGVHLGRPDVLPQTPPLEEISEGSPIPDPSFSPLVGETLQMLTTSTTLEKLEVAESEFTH
Histamine H2 receptor (Homo sapiens), sequence (P25021 whole entry): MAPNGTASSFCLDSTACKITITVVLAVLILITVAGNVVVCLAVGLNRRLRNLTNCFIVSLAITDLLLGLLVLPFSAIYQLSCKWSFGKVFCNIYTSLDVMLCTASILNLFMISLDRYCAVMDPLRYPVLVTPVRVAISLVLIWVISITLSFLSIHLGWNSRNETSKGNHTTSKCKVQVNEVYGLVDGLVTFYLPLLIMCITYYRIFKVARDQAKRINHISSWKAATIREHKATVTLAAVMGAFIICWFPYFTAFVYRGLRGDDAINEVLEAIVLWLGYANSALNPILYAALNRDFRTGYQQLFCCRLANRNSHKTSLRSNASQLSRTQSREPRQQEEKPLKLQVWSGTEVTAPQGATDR
Leucine-rich repeat serine/threonine-protein kinase 2 (Homo sapiens), sequence (Q5S007 whole entry): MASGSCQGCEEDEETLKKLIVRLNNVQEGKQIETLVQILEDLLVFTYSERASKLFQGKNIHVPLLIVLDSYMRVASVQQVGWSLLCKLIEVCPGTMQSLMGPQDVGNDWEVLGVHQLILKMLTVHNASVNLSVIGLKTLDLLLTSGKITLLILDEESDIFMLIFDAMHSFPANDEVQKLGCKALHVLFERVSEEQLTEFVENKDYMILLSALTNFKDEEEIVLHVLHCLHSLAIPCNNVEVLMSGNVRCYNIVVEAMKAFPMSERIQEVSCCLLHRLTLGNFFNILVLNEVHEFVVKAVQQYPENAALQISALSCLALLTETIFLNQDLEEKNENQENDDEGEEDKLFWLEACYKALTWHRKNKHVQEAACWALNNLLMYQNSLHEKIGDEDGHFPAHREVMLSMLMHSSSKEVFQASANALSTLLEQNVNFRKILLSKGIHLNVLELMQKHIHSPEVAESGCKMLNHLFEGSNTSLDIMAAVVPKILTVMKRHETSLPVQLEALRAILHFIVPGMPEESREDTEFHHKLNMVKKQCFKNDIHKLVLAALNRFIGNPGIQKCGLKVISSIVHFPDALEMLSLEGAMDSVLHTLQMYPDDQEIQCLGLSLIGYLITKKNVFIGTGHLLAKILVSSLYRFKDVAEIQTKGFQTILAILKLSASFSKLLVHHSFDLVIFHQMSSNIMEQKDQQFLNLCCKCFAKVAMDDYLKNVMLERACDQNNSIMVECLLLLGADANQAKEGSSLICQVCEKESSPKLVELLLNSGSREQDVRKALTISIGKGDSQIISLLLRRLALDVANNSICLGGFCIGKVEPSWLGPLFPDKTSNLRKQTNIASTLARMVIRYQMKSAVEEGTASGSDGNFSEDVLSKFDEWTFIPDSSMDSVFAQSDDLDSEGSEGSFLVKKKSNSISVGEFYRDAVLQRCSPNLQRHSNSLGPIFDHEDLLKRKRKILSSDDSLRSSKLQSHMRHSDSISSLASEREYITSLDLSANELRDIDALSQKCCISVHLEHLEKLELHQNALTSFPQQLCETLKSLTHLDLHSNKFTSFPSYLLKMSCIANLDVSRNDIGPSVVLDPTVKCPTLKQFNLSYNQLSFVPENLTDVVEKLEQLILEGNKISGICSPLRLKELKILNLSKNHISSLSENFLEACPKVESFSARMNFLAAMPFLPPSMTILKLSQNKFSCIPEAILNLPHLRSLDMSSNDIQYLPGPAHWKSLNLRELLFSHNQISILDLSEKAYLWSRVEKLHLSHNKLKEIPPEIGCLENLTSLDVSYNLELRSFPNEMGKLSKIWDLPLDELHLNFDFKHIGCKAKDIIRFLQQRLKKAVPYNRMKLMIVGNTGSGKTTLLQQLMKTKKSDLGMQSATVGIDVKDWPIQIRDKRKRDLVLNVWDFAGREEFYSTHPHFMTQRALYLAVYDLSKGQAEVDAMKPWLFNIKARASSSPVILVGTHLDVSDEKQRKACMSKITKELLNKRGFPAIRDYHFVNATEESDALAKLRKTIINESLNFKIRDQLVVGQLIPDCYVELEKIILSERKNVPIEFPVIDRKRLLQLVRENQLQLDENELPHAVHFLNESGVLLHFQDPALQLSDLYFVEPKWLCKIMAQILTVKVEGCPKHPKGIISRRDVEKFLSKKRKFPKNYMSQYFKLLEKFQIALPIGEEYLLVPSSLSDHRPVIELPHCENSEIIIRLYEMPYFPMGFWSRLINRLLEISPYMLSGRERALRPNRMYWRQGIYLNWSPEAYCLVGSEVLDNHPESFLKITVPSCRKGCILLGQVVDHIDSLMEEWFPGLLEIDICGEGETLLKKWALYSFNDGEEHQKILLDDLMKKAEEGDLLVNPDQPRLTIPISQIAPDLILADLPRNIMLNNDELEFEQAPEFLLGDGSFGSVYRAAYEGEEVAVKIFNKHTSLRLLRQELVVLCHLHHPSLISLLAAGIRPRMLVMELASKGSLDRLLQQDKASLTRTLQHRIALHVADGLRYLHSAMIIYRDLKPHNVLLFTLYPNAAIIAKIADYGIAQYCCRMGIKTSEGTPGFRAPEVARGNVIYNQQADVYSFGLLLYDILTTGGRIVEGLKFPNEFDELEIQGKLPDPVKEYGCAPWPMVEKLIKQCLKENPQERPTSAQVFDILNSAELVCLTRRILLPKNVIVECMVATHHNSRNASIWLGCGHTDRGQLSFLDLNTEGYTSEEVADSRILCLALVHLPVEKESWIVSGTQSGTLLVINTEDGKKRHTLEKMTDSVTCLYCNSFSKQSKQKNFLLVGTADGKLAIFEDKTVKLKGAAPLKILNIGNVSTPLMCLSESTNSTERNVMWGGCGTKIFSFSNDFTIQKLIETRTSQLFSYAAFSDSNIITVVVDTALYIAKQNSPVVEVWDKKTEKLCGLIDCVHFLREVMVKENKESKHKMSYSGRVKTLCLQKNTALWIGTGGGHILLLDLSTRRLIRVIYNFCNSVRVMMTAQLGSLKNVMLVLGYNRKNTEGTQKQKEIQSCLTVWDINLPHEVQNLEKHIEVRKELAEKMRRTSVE
Tyrosine-protein kinase Yes (Homo sapiens), sequence (P07947 2-543 limits assumed): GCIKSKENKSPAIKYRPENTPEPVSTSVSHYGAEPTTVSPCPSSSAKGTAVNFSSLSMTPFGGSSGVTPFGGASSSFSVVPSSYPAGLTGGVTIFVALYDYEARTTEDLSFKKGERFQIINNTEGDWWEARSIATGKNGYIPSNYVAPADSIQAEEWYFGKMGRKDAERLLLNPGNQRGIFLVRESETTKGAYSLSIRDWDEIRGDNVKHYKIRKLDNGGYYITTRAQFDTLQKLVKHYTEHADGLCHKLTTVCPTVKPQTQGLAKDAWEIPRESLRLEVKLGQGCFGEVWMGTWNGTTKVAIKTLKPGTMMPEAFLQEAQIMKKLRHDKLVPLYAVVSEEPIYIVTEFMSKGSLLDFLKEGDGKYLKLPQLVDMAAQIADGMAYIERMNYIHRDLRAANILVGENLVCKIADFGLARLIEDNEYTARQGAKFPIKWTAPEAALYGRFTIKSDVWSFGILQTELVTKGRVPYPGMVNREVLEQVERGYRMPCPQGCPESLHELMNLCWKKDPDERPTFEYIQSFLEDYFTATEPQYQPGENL

Compound: Cc1ccc(-c2cnc([C@@]3(O)CC[C@H](C(=O)O)C(C)(C)C3)s2)cc1Nc1cccc(C(F)(F)F)n1 [MRL-SYKi-NC]
- residual activity [1]: 100%
- residual activity [2]: 92.6%
- residual activity [3]: 95.4%
- residual activity [4]: 84.1%
- residual activity [5]: 88.5%
- residual activity [6]: 95.1%
- residual activity [7]: 85.3%
- residual activity [8]: 100%
- residual activity [9]: 75.8%
- residual activity [10]: 100%
- residual activity [11]: 100%
- residual activity [12]: 100%
- residual activity [13]: 87.4%
- residual activity [14]: 100%
- residual activity [15]: 70.1%
- residual activity [16]: 65.2%
- residual activity [17]: 93%
- residual activity [18]: 98.5%
- residual activity [19]: 73.8%
- residual activity [20]: 98.8%
- residual activity [21]: 89.5%
- residual activity [22]: 93.9%
- residual activity [23]: 99.3%
- inhibition [24]: 8.65%
- residual activity [25]: 89.9%
- residual activity [26]: 80.1%
- residual activity [27]: 100%
- residual activity [28]: 100%
- residual activity [29]: 56.9%
- residual activity [30]: 95.6%
- residual activity [31]: 82.5%
- residual activity [32]: 100%
- residual activity [33]: 100%
- residual activity [34]: 42%
- residual activity [35]: 80.3%
- residual activity [36]: 100%
- residual activity [37]: 72.5%
- inhibition [38]: 27.4%
- residual activity [39]: 64.9%
- residual activity [40]: 100%
- residual activity [41]: 100%
- residual activity [42]: 100%
- residual activity [43]: 100%
- inhibition [44]: 20.2%
- residual activity [45]: 83.4%

Compound: Cc1cc(Nc2nccc(C)n2)cc(-c2cnc([C@@]3(O)CC[C@H](C(=O)O)C(C)(C)C3)s2)c1 [MRL-SYKi]
- residual activity [1]: 100%
- residual activity [2]: 100%
- residual activity [3]: 95.4%
- residual activity [4]: 100%
- residual activity [5]: 44.9%
- residual activity [6]: 100%
- residual activity [7]: 99.9%
- residual activity [8]: 100%
- residual activity [9]: 100%
- residual activity [10]: 100%
- residual activity [11]: 85.1%
- residual activity [12]: 91.3%
- residual activity [13]: 87.1%
- residual activity [14]: 64.4%
- residual activity [15]: 100%
- residual activity [16]: 90.9%
- residual activity [17]: 100%
- residual activity [18]: 100%
- residual activity [19]: 83.4%
- residual activity [20]: 94.7%
- residual activity [21]: 100%
- residual activity [22]: 73.8%
- residual activity [23]: 100%
- inhibition [24]: 3.06%
- residual activity [25]: 100%
- residual activity [26]: 100%
- residual activity [27]: 67.4%
- residual activity [28]: 98.9%
- residual activity [29]: 100%
- residual activity [30]: 100%
- residual activity [31]: 100%
- residual activity [32]: 100%
- residual activity [33]: 86%
- residual activity [34]: 60.9%
- residual activity [35]: 92.8%
- residual activity [36]: 100%
- residual activity [37]: 100%
- inhibition [38]: 33.5%
- residual activity [39]: 100%
- residual activity [40]: 88%
- residual activity [41]: 100%
- residual activity [42]: 86.2%
- residual activity [43]: 76.1%
- inhibition [44]: 11.6%
- residual activity [45]: 100%
